# Measured values taken from ChEMBL document CHEMBL1201862, “PubChem BioAssay data set” (2004).
# The source made the active and inactive calls.
# Legend:
# [1] = biological target: T1, Ubiquitin-conjugating enzyme E2 N (Homo sapiens, UniProt P61088); type: functional;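 further: Dose-response confirmation in a TR-FRET assay detecting UBC13-driven polyubiquitin chain formation, inhibition measured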
# T1 sequence (P61088 whole entry): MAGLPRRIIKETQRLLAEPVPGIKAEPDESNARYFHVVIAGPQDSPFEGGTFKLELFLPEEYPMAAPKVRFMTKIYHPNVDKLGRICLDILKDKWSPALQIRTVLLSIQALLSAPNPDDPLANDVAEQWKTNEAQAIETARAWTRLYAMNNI
# Paired box protein Pax-8 = Paired box protein Pax-8 (Homo sapiens, UniProt Q06710); experiment: PAX8 transcriptional activity inhibition in RMG-I – RMG-I cells, luciferase, cherry-pick, dose response (AID 687027); type: functional, cell-based;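 further: luciferase reporter driven by Pax8 target thyroperoxidase promoter measured by SteadyGlo luminescence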
# Chain of Paired box protein Pax-8 (Q06710 whole entry): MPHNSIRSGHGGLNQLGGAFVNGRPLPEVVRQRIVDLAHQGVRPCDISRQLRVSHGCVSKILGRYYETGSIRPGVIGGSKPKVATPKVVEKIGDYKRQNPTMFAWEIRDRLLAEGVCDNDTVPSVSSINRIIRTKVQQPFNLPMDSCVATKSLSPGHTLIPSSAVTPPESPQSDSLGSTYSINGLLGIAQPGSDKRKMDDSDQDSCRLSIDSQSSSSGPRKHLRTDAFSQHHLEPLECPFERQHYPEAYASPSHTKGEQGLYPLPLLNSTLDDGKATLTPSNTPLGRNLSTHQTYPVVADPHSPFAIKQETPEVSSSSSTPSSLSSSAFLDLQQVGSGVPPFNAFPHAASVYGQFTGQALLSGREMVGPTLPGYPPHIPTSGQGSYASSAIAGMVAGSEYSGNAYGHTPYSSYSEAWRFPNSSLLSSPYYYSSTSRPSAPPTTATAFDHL
# [2] = general cell-killing toxicity readout – plate reader, dry powder samples, cytotoxicity control for PAX8 inhibitor project, dose response (AID 743021); type: functional, cell-based
# [3] = MITF: Counter assay: A375 proliferation Measured in Cell-Based System Using Plate Reader - 2084-03_Inhibitor_Dose_DryPowder_Activity_Set8.; type: functional; settings: A-375
# [4] = MITF Orthogonal Assay: SK-MEL-5 CTG Assay Measured in Cell-Based System Using Plate Reader - 2084-02_Inhibitor_Dose_DryPowder_Activity_Set7.; type: functional
# [5] = biological target: T2, Trace amine-associated receptor 1 (Homo sapiens, UniProt Q96RJ0); experiment: Fluorescence-based cell-based high throughput dose response assay to identify agonists of the human trace amine associated receptor 1 (TAAR1).; type: functional
# T2 sequence (Q96RJ0 whole entry): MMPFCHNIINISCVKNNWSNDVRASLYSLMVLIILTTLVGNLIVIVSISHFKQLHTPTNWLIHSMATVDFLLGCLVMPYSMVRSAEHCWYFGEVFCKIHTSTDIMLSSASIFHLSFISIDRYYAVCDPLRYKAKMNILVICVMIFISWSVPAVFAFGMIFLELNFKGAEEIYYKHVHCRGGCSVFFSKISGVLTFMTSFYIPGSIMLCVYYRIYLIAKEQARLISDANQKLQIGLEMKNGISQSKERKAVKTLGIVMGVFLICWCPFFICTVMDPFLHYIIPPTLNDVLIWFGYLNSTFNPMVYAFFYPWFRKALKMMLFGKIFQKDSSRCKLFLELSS
# cells [6] = type: functional, cell-based
# [7] = biological target: T2, Trace amine-associated receptor 1; experiment: Counterscreen for agonists of the human trace amine associated receptor 1 (hTAAR1): Fluorescence-based cell-based high throughput dose response assay to identify hTAAR1 agonist that also desensitize TAAR1 receptor response.; type: functional
# cells [8] = type: functional, cell-based; remark: listed apart in the source
# [9] = IGROV1 cell killing – plate reader, dry powder samples, PAX8 inhibitor project, dose response (AID 743043); type: functional, cell-based; settings: IGROV-1
# [10] = OVCAR-3 cell viability loss – plate reader, dry powder samples, PAX8 inhibitor project, dose response (AID 743044); type: functional, cell-based
# [11] = OVCAR8 cell viability loss – plate reader, dry powder samples, PAX8 project, dose response (AID 743197); type: functional, cell-based; settings: OVCAR-8
# [12] = biological target: T3, Mannose-6-phosphate isomerase (Homo sapiens, UniProt P34949); experiment: MPI inhibition at elevated mannose 6-phosphate – biochemical, fluorescence intensity, high mannose 6-phosphate, primary screen (AID 1220)
# T3 sequence (P34949 whole entry): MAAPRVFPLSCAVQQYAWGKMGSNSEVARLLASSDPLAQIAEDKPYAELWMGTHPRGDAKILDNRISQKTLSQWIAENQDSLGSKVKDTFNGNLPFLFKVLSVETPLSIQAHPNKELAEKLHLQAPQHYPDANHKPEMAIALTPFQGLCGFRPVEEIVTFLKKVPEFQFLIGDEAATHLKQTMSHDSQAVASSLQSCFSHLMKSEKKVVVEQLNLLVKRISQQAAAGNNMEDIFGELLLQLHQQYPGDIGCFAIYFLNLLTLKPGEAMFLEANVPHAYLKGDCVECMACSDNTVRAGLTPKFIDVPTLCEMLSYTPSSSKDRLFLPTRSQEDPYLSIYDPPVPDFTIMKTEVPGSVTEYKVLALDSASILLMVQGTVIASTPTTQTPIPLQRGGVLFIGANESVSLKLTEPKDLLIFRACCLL
# [13] = biological target: Tyrosyl-DNA phosphodiesterase 2 (Homo sapiens, UniProt O95551); experiment: potency against TDP2 phosphodiesterase activity – biochemical, epi absorbance, IC50, dose response (AID 743297)
# Chain of Tyrosyl-DNA phosphodiesterase 2 (O95551 whole entry): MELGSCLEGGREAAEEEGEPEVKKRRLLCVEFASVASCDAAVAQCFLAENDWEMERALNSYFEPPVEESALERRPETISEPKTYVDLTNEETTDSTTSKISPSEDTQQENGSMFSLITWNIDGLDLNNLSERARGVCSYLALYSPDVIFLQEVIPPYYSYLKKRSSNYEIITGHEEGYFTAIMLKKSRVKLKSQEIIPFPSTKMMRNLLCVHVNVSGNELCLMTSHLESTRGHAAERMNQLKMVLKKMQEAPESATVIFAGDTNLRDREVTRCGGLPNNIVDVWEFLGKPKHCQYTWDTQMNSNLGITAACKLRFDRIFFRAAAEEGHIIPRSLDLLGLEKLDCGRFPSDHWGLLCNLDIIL
smiles,measurement,setting,value
CCC[C@@H](CN[C@@H](CNC)[C@H](C)CC)NCC1CCC(C(C)(C)C)CC1 (stereo not given in full),IC50,[1],> 20 µM (inactive)
same,AC50,Paired box protein Pax-8,14.4 µM (active)
same,AC50,[2],37.7 µM (active)
COc1ccc(NC2=CC(=O)c3ccccc3C2=O)cc1,AC50,[3],> 70 µM (inactive)
same,AC50,[4],0.838 µM (active)
CC(C)=C1C2CCC1C(C(=O)NCCc1ccccc1)C2C(=O)O (stereo not given),EC50,[5],0.189 µM (active)
same,EC50,cells [6],> 29.9 µM (inactive)
same,IC50,[7],2.42 µM (active)
same,IC50,cells [8],> 29.9 µM (inactive)
C[C@@H]1CN([C@H](C)CO)C(=O)c2cc(NC(=O)CCC(F)(F)F)ccc2O[C@@H](C)CCCCO[C@@H]1CN(C)Cc1ccc(Cl)c(Cl)c1,AC50,[9],45.7 µM (active)
same,AC50,[10],33.3 µM (active)
same,AC50,Paired box protein Pax-8,7.47 µM (active)
same,AC50,[11],61 µM (active)
Nn1cnnc1N/N=C\c1ccc(-c2ccccc2[N+](=O)[O-])o1,IC50,[12],> 50 µM (not active)
same,IC50,[13],> 128 µM (inactive)
